In patent US20240262833A1, “FUSED HETEROCYCLIC DERIVATIVES AS NEGATIVE ALLOSTERIC MODULATORS OF MGLU7 RECEPTOR” (Addex Pharma S.A., priority 2021, published 2024):

target: T1, human metabotropic glutamate 7 receptor (hmGlu7) (Homo sapiens, UniProt Q14831); experiment: mGlu7 assay on HEK-expressing human mGlu7: fluorescent cell based Ca2+ mobilization assay (FLIPR), inhibition of EC80 L-AP4 response; conditions: HEK-293 cells expressing hmGlu7; EC80 L-AP4 stimulation; mean of at least three independent experiments in duplicate; read-out: Ca2+ Flux (mean IC50)
T1 construct: expressed in transfected cells
Text: mGlu7 Assay on HEK-Expressing Human mGlu7
The cDNA encoding the human metabotropic glutamate 7 receptor (hmGlu7), (accession number NM_181874.2, NCBI Nucleotide database browser), was subcloned into an expression vector containing also the hygromycin resistance gene. In parallel, the cDNA encoding a G protein allowing redirection of the activation signal to intracellular calcium flux was subcloned into a different expression vector containing also the Puromycin resistance gene. Transfection of both these vectors into HEK293 cells with PolyFect reagent (Qiagen) according to supplier's protocol, and hygromycin and puromycin treatment allowed selection of antibiotic resistant cells which had integrated stably one or more copies of the plasmids. Positive cellular clones expressing hmGlu7 were identified in a functional assay measuring changes in calcium fluxes in response to glutamate and L-AP4 or known mGlu7 orthosteric antagonists.
HEK-293 cells expressing hmGlu7 were maintained in media containing DMEM, Fetal Bovine Serum (10%), Glutamax™ (2 mM), penicillin (100 units/mL), streptomycin (100 μg/mL), geneticin (100 μg/mL) and hygromycin-B (40 μg/mL) and puromycin (1 μg/mL) at 37° C. with 5% CO2 in a humidified atmosphere.
Fluorescent Cell Based-Ca^2+ Mobilization Assay Human mGlu7 HEK-293 cells were plated out 24 hours prior to a fluorescent cell-based calcium mobilization assay using FLIPR^384 assay (Molecular Device, Sunnyvale, CA, USA) in black-walled, clear-bottomed, poly-L-ornithine-coated 384-well plates at a density of 25,000 cells/well in a glutamine/glutamate free DMEM medium containing fetal bovine serum (10%), penicillin (100 units/mL), streptomycin (100 μg/mL) and doxycyline (1 μg/ml) at 37° C. with 5% CO2 in a humidified atmosphere.
On the day of the assay, the medium was aspirated and the cells were loaded with a 3 μM solution of Fluo4-AM (LuBioScience, Lucerne, Switzerland) in 0.03% pluronic acid. After 1 hour at 37° C./5% CO2, the non incorporated dye was removed by washing cell plate with the assay buffer. All assays were performed in a pH 7.4 buffered-solution containing 20 mM HEPES, 143 mM NaCl, 6 mM KCl, 1 mM MgSO4, 1 mM CaCl2, 0.125 mM sulfinpyrazone and 0.1% glucose.
After 10 s of basal fluorescence recording, various concentrations of the compounds of the invention were added to the cells. Changes in fluorescence levels were first monitored for 180 s in order to detect any agonist activity of the compounds. Then the cells were stimulated by an EC80 L-AP4 concentration for an additional 110 s in order to measure inhibiting activities of the compounds of the invention. EC80 L-AP4 concentration is the concentration giving 80% of the maximal glutamate response.
The concentration-response curves of L-AP4 or representative compounds of the present invention were generated using the Prism GraphPad software (Graph Pad Inc, San Diego, USA). The curves were fitted to a four-parameter logistic equation: […]
allowing determination of IC50 values.
The Table 3 below represents the mean IC50 obtained from at least three independent experiments of selected molecules performed in duplicate.

T1 sequence (Q14831 35-922 isoform Q14831-2): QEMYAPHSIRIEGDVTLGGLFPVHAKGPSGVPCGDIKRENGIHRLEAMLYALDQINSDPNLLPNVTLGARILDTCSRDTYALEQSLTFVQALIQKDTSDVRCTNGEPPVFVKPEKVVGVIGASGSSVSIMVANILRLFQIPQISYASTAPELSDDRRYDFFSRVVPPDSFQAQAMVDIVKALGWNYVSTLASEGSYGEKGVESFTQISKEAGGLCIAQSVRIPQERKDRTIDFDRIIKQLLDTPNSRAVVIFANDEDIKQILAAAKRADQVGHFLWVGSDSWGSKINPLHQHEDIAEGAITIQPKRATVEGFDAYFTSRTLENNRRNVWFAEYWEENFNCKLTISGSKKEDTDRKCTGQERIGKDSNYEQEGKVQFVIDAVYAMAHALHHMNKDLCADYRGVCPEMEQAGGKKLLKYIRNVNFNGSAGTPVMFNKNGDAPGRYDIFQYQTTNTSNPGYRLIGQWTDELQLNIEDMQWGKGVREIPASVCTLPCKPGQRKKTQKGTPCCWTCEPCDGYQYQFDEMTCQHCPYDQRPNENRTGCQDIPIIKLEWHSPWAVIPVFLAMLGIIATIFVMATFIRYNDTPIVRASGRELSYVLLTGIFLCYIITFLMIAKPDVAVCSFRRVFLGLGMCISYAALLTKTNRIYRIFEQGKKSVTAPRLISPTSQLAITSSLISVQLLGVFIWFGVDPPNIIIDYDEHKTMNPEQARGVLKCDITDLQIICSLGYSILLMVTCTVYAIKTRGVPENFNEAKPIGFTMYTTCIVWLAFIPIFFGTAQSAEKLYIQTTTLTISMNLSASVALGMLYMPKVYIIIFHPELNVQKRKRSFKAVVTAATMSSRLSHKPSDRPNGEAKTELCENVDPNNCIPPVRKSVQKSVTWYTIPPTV

Structure (SMILES)	IC50 [µM]
Cc1c(OC2CC2)cccc1-n1c(C)c2cnn(-c3ccc(N4CCOCC4)cc3)c(=O)c2c1C [1-221]	1 to 10
COc1cccc(-n2c(C)c3cnn(-c4ccc(C(C)(C)C)cn4)c(=O)c3c2C)c1 [1-206]	0.1 to 1
Cc1c2cnn(-c3cccnc3)c(=O)c2c(C)n1-c1cccc(N2CCOCC2)c1 [1-64]	1 to 10
CCc1c2cnn(-c3ccccn3)c(=O)c2c(C)n1-c1cccc(OC)c1 [1-140]	1 to 10
COCc1cccc(-n2c(C)c3cnn(-c4ccccc4)c(=O)c3c2C)c1 [1-108]	0.1 to 1
COc1ccc(-n2ncc3c(C)n(-c4cccc(N5CCOCC5)c4)c(C)c3c2=O)cc1 [1-67]	0.1 to 1
Cc1c2cnn(-c3ccccc3Cl)c(=O)c2c(C)n1-c1ccccc1 [1-20]	0.1 to 1
COc1ccc(-n2c(C)c3cnn(-c4ncccn4)c(=O)c3c2C)cn1 [1-241]	1 to 10
Cc1c2cnn(-c3cccc(C#N)c3)c(=O)c2c(C)n1-c1ccccc1 [1-16]	0.1 to 1
Cc1c2cnn(-c3ccccn3)c(=O)c2c(C)n1-c1cccc(N2CCCC2=O)c1 [1-111]	1 to 10
Cc1c2cnn(-c3ccncc3)c(=O)c2c(C)n1-c1ccccc1 [1-37]	0.1 to 1
Cc1c2cnn(-c3ccc(N4CCOCC4)cc3)c(=O)c2c(C)n1-c1ccccc1 [1-93]	0.1 to 1
CCc1c2c(=O)n(-c3ccccn3)ncc2c(C)n1-c1cccc(OC)c1 [1-78]	0.1 to 1
Cc1c2cnn(-c3ccccn3)c(=O)c2c(C)n1-c1ccc(F)c(N2CCC2)c1 [1-192]	0.1 to 1
COc1ccc(-n2ncc3c(C)n(-c4cccc(OC)c4)c(C)c3c2=O)nc1 [1-83]	0.1 to 1
Cc1c2cnn(C34CC(C3)C4)c(=O)c2c(C)n1-c1cccc(N2CCC2)c1 [1-222]	0.1 to 1
COCc1cccc(-n2c(C)c3cnn(-c4ccccn4)c(=O)c3c2C)c1 [1-107]	1 to 10
Cc1c2cnn(-c3ccccc3)c(=O)c2c(C)n1-c1ccccc1 [1-4]	0.1 to 1
Cc1c2cnn(-c3ccccn3)c(=O)c2c(C)n1-c1ccc2c(c1)OCO2 [1-55]	0.1 to 1
Cc1c2cnn(-c3ccccc3)c(=O)c2c(C)n1-c1ccc(Cl)cc1 [1-8]	0.1 to 1
Cc1c2cnn(-c3ncccn3)c(=O)c2c(C)n1-c1ccccc1 [1-58]	1 to 10
COc1cccc(-n2c(C)c3cnn(-c4ccccn4)c(=O)c3c2C)c1 [1-44]	0.1 to 1

More lines, now with the values ahead:

IC50 [µM]	Structure (SMILES)
0.1 to 1	CCOc1ccc(-n2ncc3c(C)n(-c4ccccc4)c(C)c3c2=O)cc1 [1-60]
0.1 to 1	COc1ccc(-n2c(C)c3cnn(-c4cccnc4)c(=O)c3c2C)cc1 [1-46]
0.1 to 1	COc1ccc(-n2c(C)c3cnn(-c4ccccc4)c(=O)c3c2C)cc1 [1-24]
< 0.1	Cc1ccc(-n2ncc3c(C)n(-c4cccc(N5CCC5)c4)c(C)c3c2=O)cn1 [1-157]
< 0.1	Cc1c2cnn(-c3ccccn3)c(=O)c2c(C)n1-c1cccc(-n2cccc2)c1 [1-142]
< 0.1	Cc1c2cnn(-c3ccc(S(N)(=O)=O)cc3)c(=O)c2c(C)n1-c1ccccc1 [1-28]
< 0.1	CC(=O)c1ccc(-n2ncc3c(C)n(-c4cccc(N5CCC5)c4)c(C)c3c2=O)cc1 [1-171]
< 0.1	Cc1c(OC2CC2)cccc1-n1c(C)c2cnn(-c3ncccc3F)c(=O)c2c1C [1-211]
< 0.1	Cc1cnc(-n2ncc3c(C)n(-c4cccc(OC5CC5)c4C)c(C)c3c2=O)nc1 [1-205]
< 0.1	COCc1ccc(-n2ncc3c(C)n(-c4ccccc4)c(C)c3c2=O)cc1 [1-38]
< 0.1	Cc1c2cnn(-c3ccc(CC(N)=O)cc3)c(=O)c2c(C)n1-c1cccc(N2CCC2)c1 [1-185]
< 0.1	Cc1cccc(-n2c(C)c3cnn(-c4ccccc4)c(=O)c3c2C)c1 [1-6]
< 0.1	Cc1c2cnn(-c3ncc(F)cn3)c(=O)c2c(C)n1-c1cccc(N2CCC2)c1 [1-226]
< 0.1	Cc1c2cnn(-c3ccccn3)c(=O)c2c(C)n1-c1cc(F)cc(N2CCC2)c1 [1-195]
